In patent US11912678B2, “LRRK2 inhibiting compounds and use thereof for treating neurodegenerative diseases” (CONSEJO SUPERIOR DE INVESTIGACIONES CIENTÍFICAS, priority 2018, dated 2024):

Columns and labels:
in vitro = conditions: PAMPA; for Pe (10−6 cm s−1) / Papp at 2.5 h: pig, pH 7.4; for Pe (10−6 cm s−1): 2.5 h
Text: The above-referenced commercial compounds, phosphate buffer at pH=7.4 (PBS), Ethanol and dodecane were obtained from the commercial houses Sigma, Acros organics, Merck, Aldrich and Fluka, respectively. […] To filter the samples, PVDF membrane filters were used (30 mm diameter, 0.45 μm pore size) from the company Symta. The equipment used to measure UV absorbance in 96-well plates was a Thermoscientific Multiskan spectrum.
Ten reference compounds were selected, whose blood-brain barrier passage is known, in order to validate the experiment. […] The solutions were filtered. Next, 180 μL of a PBS/EtOH (70/30) solution were added to each well of the acceptor plate. The donor plate was impregnated with 4 μL of a pig brain lipid solution dissolved in dodecane (20 mg mL^−1). After 5 minutes, 180 μL of solution of each compound were added on this plate. Of the compounds whose penetration in the central nervous system is being evaluated, between 1-2 mg were taken and dissolved in 1,500 μL of EtOH and 3,500 μL of PBS phosphate buffer (pH=7.4), filtered and added to the 96-well donor plate. Next, the donor plate was placed on top of the acceptor plate forming a kind of “sandwich” and left to incubate for 2 h and 30 min at 25° C. The passive transport compounds pass from the donor plate through the pig brain lipid to the acceptor plate. After 2 h and 30 min, the donor plate is carefully removed. The concentration and absorbance of both the commercial compounds and the synthesised derivatives that were evaluated in the acceptor and donor plates were determined using a UV absorbance reader. Each sample was analysed at 2 to 5 wavelengths, in at least three wells and in two independent experiments. […] Ten reference commercial compounds whose penetration in the central nervous system is known were used in each experiment in order to validate the method.

LRRK2 = LRRK2 (Homo sapiens (Human), UniProt Q5S007); test: Inhibition of LRRK2 (Adapta kinase assay); format: biochemical; conditions: Adapta method, 60 min kinase reaction
Sequence of LRRK2 (Q5S007 whole entry): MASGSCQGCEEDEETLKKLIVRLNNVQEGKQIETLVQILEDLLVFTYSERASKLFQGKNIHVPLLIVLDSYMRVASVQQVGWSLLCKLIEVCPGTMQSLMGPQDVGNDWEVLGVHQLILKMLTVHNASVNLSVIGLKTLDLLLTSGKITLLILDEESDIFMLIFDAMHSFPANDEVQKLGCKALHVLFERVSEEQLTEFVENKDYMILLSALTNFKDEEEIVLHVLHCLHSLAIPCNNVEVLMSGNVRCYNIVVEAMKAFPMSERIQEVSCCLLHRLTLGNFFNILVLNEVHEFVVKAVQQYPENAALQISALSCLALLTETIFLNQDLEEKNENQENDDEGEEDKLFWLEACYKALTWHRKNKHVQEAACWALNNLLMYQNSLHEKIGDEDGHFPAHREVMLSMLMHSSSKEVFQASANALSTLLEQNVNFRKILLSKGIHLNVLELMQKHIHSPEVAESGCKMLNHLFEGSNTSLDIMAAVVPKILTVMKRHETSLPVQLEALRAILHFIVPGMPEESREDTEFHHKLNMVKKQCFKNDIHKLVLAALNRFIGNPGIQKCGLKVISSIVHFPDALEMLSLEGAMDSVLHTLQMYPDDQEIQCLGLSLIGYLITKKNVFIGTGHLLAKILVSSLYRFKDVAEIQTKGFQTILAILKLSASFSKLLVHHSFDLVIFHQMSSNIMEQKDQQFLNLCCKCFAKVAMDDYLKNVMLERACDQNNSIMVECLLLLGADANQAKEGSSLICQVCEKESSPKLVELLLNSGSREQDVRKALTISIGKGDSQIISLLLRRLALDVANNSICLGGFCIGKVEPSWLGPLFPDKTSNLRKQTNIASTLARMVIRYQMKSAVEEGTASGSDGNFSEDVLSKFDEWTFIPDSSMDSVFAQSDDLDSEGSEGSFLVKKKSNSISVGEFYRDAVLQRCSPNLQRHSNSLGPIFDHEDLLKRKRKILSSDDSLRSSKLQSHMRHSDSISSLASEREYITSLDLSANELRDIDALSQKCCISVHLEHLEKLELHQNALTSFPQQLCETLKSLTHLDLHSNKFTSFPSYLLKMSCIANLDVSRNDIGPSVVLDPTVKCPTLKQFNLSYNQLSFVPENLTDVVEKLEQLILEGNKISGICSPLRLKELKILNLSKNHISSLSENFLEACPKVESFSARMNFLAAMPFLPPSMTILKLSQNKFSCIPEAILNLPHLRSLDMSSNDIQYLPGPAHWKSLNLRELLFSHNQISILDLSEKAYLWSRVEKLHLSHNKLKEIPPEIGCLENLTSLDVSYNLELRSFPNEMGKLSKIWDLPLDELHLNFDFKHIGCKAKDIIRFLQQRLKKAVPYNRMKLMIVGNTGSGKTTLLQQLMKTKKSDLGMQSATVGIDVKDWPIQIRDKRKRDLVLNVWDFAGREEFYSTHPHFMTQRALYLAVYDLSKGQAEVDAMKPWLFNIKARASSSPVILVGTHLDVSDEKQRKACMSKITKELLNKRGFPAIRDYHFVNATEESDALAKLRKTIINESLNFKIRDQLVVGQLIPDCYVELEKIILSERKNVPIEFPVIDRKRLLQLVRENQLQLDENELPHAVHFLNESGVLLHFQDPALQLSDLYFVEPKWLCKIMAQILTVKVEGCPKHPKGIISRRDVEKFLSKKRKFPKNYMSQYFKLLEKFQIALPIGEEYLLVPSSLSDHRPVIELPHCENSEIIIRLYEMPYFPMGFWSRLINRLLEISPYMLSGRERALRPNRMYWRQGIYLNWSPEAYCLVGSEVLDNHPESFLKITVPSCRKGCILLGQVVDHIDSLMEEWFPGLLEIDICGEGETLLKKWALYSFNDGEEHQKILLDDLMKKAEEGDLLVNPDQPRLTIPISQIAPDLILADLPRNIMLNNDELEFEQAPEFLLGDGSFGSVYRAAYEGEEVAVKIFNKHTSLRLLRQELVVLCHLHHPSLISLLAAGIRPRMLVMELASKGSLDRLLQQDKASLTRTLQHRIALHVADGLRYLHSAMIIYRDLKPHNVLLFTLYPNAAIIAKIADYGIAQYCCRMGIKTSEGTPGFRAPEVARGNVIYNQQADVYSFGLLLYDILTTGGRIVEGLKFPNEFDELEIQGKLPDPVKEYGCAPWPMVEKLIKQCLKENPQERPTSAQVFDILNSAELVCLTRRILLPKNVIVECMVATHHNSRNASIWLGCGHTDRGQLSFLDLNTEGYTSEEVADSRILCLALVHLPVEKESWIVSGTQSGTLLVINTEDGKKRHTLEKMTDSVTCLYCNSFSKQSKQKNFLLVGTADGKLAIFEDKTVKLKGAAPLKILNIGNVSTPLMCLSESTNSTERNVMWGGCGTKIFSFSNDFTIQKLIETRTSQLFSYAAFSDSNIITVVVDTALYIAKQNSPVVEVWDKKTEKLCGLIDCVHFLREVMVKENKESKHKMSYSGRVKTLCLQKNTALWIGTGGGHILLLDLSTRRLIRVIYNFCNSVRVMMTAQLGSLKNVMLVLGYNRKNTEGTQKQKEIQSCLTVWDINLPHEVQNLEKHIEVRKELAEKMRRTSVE
Procedure: (§1) The compounds were evaluated in LRRK2 and in the mutated form LRRK2 G2019S. This mutation is more frequent in the familial forms of Parkinson's Disease and has a significant increase in kinase activity. The experimental determination of the inhibition of both enzymes was carried out using the Adapta® method, which is an evaluation method of fluorescent kinase activity that determines ADP in a highly sensitive manner. The methodology can be divided into two stages: kinase reaction and ADP determination. In the first stage, all the components for the kinase reaction are added to the well and incubated for 60 min. After the reaction, the ADP detection solution which contains a Europium-labeled anti-ADP antibody (Alexa Fluor® 647 labeled ADP tracer) and EDTA, to stop the kinase reaction, are added to the reaction well. The ADP formed in the kinase reaction without inhibitor will displace the Alexa Fluor® 647 labeled ADP tracer of the antibody, resulting in the TR-FRET signal decrease.
(§2) The assay is performed in 384-well plates. Adding 100 nL of the solution with the compound to be evaluated in 1% DMSO, 2.4 μL of HEPES solution, 2.5 μL of ATP solution, […] of substrate solution. The 10 μl of the kinase reaction contain: […] LRRK2 and 200 μM ERM (LRRKtide) in 25 mM Tris/7.5 mM HEPES pH 8.2, 0.005% BRIJ-35, 5 mM MgCl2, 0.5 mM EGTA, 0.01% NaN3 or 3-12 ng LRRK2 G2019S and 200 μM ERM (LRRKtide) in 25 mM Tris/7.5 mM HEPES pH 8.2, 0.005% BRIJ-35, 5 mM MgCl2, 0.5 mM EGTA, 0.01% NaN3. The plate is stirred for 30 s on a stirring plate and centrifuged for 1 min in a centrifuge at 1,000×g. The reaction is incubated at room temperature for 60 min. After this time period, 5 μL of the detection mixture is added, the plate is stirred for 30 s on a stirring plate and centrifuged for 1 min at 1,000×g. Fluorescence is determined in a plate reader and the data are analysed.

LRRK2 G2019S = LRRK2 G2019S (Homo sapiens (Human), UniProt Q5S007, G2019S); test: Inhibition of LRRK2 G2019S (Adapta kinase assay); format: biochemical; conditions: Adapta method, 60 min kinase reaction
Sequence of LRRK2 G2019S (Q5S007 whole entry G2019S): as the sequence (Q5S007 whole entry) above, with G2019S counted along it
Procedure: as §1, §2

[1] = tested on: human neuronal line SH-SY5Y; test: Neuroprotection against okadaic acid-induced tau hyperphosphorylation (MTT); format: cell-based; conditions: compounds 1, 5 and 10 μM pre-incubated 1 hour, OA 30 nM 24 hours
Procedure: The neuroprotective potential of the compounds was evaluated in an okadaic acid (OA)-induced neurodegeneration cell model. OA is an inhibitor of phosphatase 1 and 2 and is normally used to induce tau hyperphosphorylation in different cell lines. In this case, the human neuronal line SH-SY5Y is used. The cells are cultured in DMEM medium supplemented with 10% FBS and 1% penicillin/streptomycin at 37° C. and in an incubator with 5% CO2. The SH-SY5Y cells are sown on a 96-well plate at a density of 60,000 cells per well for 48 hours. After this time period, the cells are pre-incubated with the compounds to be studied at a concentration of 1, 5 and 10 μM for 1 hour. After that time period, OA is added at a concentration of 30 nM, letting the plate incubate for a further 24 hours. Next, the cells were incubated with an MTT solution at 0.5 mg·mL^−1 for at least 4 hours at 37° C. and 5% CO2. Next, the culture medium is removed and the formazan crystals joined to the base of the plate are dissolved with 200 μL of DMSO. Lastly, UV absorbance was measured at 595 nm in a plate reader (Varioskan Flash Microplate reader, Thermo Scientific).

| Structure (SMILES) | Pe (10−6 cm s−1) (in vitro) | IC50 (LRRK2) | IC50 (LRRK2 G2019S) | Neuroprotection against okadaic acid damage / tau hyperphosphorylation [1] | Papp at 2.5 h (in vitro) | Blood-brain barrier penetration by passive diffusion (in vitro) | Prediction of penetration in the central nervous system (CNS) (in vitro) |
| --- | --- | --- | --- | --- | --- | --- | --- |
| CN(C)CCCN1c2ccccc2Sc2ccccc21 [Promazine, reference compound] | 9.8 ± 0.5 10−6 cm s−1 | – | – | – | – | – | – |
| COc1ccc2nc(NC(=O)c3ccc(N4CCOCC4)cc3)sc2c1 [Compound 2, N-(6-methoxybenzothiazole-2-yl)-4-morpholinobenzamide] | – | 368 nM | 108 nM | prevents the damage caused by the okadaic acid | – | – | – |
| O=C(Nc1nc2ccc(Br)cc2s1)c1ccc(N2CCOCC2)cc1 [Compound 8, N-(6-bromobenzothiazole-2-yl)-4-morpholinobenzamide] | – | 474 nM | 1380 nM | prevents the damage caused by the okadaic acid | – | – | – |
| CC(C)c1ccc2nc(NC(=O)c3ccc(N4CCOCC4)cc3)sc2c1 [Compound 10, N-(6-isopropylbenzothiazole-2-yl)-4-morpholinobenzamide] | – | 1950 nM | 1170 nM | prevents the damage caused by the okadaic acid | 4.27 ± 2.7 ×10⁻⁶ cm/s | – | – |
| CN1C(C(=O)Nc2ccccn2)=C(O)c2ccccc2S1(=O)=O [Piroxicam, reference compound] | 0.6 ± 0.2 10−6 cm s−1 | – | – | – | – | – | – |
| O=C(Nc1nc2ccc(C(F)(F)F)cc2s1)c1ccc(N2CCOCC2)cc1 [Compound 3, N-(6-trifluoromethylbenzothiazole-2-yl)-4-morpholinobenzamide] | – | 1060 nM | 293 nM | prevents the damage caused by the okadaic acid | – | – | – |
| O=C(Nc1nc2ccc(F)cc2s1)c1ccc(N2CCOCC2)cc1 [Compound 6, N-(6-fluorobenzothiazole-2-yl)-4-morpholinobenzamide] | 5.1 ± 0.1 10−6 cm s−1 | 190 nM | 426 nM | prevents the damage caused by the okadaic acid | – | capable of penetrating the blood-brain barrier by passive diffusion | – |
| CCOc1ccc2nc(NC(=O)c3ccc(N4CCOCC4)cc3)sc2c1 [Compound 7, N-(6-ethoxybenzothiazole-2-yl)-4-morpholinobenzamide] | – | 308 nM | 158 nM | prevents the damage caused by the okadaic acid | – | – | – |
| CCCOc1ccc2nc(NC(=O)c3ccc(N4CCOCC4)cc3)sc2c1 [Compound 9, N-(6-propoxybenzothiazole-2-yl)-4-morpholinobenzamide] | – | 4000 nM | 1190 nM | prevents the damage caused by the okadaic acid | 4.28 ± 3.45 ×10⁻⁶ cm/s | – | – |
| O=C(Nc1nc2ccccc2s1)c1ccc(N2CCOCC2)cc1 [Compound 1, N-(benzothiazole-2-yl)-4-morpholinobenzamide] | 13.4 ± 2.4 10−6 cm s−1 | 696 nM | 360 nM | prevents the damage caused by the okadaic acid | – | capable of penetrating the blood-brain barrier by passive diffusion | – |
| Cc1ccc2nc(NC(=O)c3ccc(N4CCOCC4)cc3)sc2c1 [Compound 4, N-(6-methylbenzothiazole-2-yl)-4-morpholinobenzamide] | 19.0 ± 2.6 10−6 cm s−1 | 523 nM | 332 nM | prevents the damage caused by the okadaic acid | – | capable of penetrating the blood-brain barrier by passive diffusion | – |
| O=C(Nc1nc2ccc(Cl)cc2s1)c1ccc(N2CCOCC2)cc1 [Compound 5, N-(6-chlorobenzothiazole-2-yl)-4-morpholinobenzamide] | – | 777 nM | – | prevents the damage caused by the okadaic acid | 3.42 ± 1.26 ×10⁻⁶ cm/s | – | CNS+/− |
